Like-named read-outs stand apart in the source and are kept apart here.
Legend:
pregnant rabbits = conditions: cited from earlier work
[1] = tested on: six prioritized vascular targets (VEGFR2, TIE2, CCL2, PAI-1, CXCL10, uPAR); experiment: Vascular bioactivity score (VBS): weighted sum of activity across 23 ToxCast assays; set-up: species or system human
pregnant rats = conditions: cited from earlier work
EphB2 = target: T1, EphB2 (Homo sapiens, UniProt P29323); experiment: EphB2 biochemical assay; conditions: read-out: EphB2 AC50
T1 sequence (P29323 569-986 isoform P29323-2 limits assumed): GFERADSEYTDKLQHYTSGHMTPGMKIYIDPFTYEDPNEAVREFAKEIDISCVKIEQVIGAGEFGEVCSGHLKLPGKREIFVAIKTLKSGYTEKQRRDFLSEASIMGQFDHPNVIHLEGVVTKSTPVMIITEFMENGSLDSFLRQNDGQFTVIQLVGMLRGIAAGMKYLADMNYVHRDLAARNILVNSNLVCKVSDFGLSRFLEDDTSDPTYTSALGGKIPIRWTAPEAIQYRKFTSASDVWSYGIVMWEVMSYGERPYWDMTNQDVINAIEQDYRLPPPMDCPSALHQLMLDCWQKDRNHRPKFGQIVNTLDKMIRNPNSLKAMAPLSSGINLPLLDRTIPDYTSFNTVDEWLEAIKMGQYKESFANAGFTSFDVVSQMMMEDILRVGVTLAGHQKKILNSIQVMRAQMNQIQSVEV

PI3Ka = PI3Ka (Homo sapiens, UniProt P42336); experiment: PI3Ka biochemical assay
Chain of PI3Ka (P42336 whole entry): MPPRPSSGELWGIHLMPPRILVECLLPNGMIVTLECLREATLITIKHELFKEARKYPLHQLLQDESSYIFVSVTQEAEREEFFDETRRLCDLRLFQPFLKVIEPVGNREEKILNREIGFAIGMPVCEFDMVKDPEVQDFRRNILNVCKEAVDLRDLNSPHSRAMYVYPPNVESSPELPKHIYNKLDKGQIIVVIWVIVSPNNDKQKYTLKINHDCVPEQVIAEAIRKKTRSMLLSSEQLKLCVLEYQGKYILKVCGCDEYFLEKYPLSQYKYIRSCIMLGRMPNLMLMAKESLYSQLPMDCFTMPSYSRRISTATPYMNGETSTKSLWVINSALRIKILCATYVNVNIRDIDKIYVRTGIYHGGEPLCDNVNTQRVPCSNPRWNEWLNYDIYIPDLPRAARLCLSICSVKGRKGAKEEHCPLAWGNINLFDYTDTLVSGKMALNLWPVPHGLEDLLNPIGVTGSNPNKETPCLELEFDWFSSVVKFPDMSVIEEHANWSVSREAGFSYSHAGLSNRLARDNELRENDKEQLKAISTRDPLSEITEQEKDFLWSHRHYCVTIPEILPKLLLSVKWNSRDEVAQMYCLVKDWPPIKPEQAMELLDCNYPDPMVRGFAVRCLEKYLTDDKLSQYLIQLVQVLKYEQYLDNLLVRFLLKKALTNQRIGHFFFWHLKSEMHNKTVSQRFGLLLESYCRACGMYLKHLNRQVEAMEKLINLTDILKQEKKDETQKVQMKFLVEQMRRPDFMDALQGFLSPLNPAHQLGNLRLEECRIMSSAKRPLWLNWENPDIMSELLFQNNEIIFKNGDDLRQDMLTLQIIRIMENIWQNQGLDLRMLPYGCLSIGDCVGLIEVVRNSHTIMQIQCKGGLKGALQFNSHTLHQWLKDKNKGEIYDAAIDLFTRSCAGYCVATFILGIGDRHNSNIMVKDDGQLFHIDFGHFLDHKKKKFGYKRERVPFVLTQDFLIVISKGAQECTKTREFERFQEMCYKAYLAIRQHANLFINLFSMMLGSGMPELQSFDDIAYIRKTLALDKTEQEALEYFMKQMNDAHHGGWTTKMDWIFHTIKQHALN
Chain of PI3Ka (P27986 whole entry partner): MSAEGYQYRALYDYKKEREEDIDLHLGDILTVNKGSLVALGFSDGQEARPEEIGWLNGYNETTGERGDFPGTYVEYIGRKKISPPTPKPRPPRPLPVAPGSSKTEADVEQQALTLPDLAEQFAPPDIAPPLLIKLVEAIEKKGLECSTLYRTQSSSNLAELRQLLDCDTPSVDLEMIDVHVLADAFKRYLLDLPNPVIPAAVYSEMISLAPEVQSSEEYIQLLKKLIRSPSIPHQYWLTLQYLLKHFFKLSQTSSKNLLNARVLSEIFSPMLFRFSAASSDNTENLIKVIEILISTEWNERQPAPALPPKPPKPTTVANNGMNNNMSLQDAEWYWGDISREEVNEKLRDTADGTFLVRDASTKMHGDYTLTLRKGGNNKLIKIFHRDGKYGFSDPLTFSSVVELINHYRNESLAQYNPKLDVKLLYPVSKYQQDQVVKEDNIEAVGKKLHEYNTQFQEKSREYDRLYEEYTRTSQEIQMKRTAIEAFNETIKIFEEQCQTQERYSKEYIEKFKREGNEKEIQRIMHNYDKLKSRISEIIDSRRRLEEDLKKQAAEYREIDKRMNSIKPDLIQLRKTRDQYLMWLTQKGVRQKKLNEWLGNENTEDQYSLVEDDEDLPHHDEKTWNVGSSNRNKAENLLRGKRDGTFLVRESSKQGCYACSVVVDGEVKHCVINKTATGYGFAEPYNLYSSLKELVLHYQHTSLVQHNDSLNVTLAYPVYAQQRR

TIE2 = TIE2 (Homo sapiens, UniProt Q02763); experiment: TIE2 cell-free biochemical assay
Chain of TIE2 (Q02763 23-1124, species assumed): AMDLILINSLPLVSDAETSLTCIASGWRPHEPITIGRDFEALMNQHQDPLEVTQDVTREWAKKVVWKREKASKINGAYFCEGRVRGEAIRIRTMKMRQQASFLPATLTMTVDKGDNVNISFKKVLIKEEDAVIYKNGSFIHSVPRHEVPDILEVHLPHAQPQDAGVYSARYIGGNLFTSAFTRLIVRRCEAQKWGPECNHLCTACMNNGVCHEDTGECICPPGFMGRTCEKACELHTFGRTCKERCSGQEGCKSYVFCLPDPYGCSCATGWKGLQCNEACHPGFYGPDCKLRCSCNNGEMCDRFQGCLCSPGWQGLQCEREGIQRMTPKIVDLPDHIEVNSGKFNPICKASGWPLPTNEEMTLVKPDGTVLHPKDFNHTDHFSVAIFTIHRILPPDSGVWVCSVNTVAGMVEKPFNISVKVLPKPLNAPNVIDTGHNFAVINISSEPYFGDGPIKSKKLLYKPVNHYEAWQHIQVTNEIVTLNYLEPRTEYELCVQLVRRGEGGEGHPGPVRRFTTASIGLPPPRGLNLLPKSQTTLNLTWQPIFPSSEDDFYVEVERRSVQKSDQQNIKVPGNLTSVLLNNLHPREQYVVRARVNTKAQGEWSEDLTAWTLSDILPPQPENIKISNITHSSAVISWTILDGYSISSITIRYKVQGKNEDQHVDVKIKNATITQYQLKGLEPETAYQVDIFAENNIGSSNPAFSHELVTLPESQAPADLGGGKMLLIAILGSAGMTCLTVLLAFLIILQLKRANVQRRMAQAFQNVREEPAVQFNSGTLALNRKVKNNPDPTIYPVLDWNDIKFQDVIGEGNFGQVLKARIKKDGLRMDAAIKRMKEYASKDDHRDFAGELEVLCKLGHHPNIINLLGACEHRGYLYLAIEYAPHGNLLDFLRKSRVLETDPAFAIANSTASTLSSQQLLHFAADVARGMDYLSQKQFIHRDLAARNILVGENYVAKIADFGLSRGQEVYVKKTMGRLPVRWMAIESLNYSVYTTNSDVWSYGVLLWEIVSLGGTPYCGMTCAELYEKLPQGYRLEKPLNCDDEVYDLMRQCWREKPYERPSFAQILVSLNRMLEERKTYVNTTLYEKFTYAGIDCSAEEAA
Source text: Assays measured direct interactions between chemicals and molecular targets (receptors, enzymes), as well as downstream effects on reporter gene activity or cellular consequences. […] The perturbation scores are a method of aggregating assays into groups and providing a higher-level view of chemical activity across important signaling pathways.
The chemical library was run against these assays, as was a repeat of the TIE2 assay from the original data series (Table 2).

PTEN = PTEN (Homo sapiens, UniProt P60484); experiment: PTEN biochemical assay
Chain of PTEN (P60484 whole entry, species assumed): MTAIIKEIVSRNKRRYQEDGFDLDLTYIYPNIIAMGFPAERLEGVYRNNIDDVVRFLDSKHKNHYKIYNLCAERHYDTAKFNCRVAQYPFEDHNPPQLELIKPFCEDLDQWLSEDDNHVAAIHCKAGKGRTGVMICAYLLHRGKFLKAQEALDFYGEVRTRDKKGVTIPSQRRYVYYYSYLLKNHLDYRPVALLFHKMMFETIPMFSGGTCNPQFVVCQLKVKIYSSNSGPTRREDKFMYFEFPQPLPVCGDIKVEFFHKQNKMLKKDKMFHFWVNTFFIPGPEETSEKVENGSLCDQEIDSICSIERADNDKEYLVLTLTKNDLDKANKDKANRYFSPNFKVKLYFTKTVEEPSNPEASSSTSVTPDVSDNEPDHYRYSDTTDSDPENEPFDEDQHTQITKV

mouse = conditions: ToxRefDB end points; ref U.S. EPA 2010b; cited from earlier work
VEGFR2 = VEGFR2 (Homo sapiens, UniProt P35968); experiment: VEGFR2 biochemical assay
VEGFR3 = VEGFR3 (Homo sapiens, UniProt P35916); experiment: VEGFR3 biochemical assay
Chain of VEGFR3 (P35916 25-1363, species assumed): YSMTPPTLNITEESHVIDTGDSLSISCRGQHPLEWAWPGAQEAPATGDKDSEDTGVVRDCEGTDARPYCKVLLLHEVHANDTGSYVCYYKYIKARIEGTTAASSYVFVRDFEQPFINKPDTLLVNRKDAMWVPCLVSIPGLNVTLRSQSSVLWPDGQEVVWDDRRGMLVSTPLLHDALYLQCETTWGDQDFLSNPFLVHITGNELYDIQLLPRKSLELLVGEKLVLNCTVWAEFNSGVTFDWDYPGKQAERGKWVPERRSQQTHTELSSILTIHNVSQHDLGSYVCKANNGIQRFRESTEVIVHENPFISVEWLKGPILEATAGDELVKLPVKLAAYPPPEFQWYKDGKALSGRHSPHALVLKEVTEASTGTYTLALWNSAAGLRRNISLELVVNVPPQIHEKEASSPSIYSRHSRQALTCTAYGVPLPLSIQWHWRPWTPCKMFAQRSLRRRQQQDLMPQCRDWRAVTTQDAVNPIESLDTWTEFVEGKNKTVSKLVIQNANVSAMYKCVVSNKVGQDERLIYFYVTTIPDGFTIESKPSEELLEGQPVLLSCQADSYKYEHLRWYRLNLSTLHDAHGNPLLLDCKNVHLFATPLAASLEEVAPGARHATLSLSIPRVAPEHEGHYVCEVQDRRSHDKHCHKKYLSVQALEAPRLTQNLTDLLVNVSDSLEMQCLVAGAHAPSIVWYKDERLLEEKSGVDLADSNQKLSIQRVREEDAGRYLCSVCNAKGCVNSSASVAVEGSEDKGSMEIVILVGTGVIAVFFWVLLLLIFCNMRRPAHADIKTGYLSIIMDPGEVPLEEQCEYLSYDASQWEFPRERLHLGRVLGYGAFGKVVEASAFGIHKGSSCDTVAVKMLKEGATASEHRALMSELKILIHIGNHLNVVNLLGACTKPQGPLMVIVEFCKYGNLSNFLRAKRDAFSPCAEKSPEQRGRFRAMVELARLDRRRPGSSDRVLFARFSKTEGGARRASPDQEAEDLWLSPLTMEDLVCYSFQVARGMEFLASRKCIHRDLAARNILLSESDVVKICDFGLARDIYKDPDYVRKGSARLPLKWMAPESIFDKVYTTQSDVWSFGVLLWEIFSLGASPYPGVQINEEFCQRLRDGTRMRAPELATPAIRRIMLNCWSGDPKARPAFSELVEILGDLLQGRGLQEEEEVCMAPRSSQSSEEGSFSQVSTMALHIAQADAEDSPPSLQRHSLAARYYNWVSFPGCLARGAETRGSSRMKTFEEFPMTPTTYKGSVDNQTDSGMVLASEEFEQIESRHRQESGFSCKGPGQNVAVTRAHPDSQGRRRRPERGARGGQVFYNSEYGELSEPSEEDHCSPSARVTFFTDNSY

[2] = rabbit-specific effects in ToxRefDB prenatal studies, ref U.S. EPA 2010b
[3] = pVDCs with rabbit-specific effects
[4] = pVDCs with rat-specific effects
[5] = rat-specific effects in ToxRefDB prenatal studies, ref U.S. EPA 2010b
[6] = ranking of 309 phase I chemicals, mean cutoff for pVDC

Compound	VBS [1, 3]	VBS [1, 4]	Developmental phenotype (pregnant rats; [5])	other results
OC(c1ccc(Cl)cc1)(c1ccc(Cl)cc1)C(Cl)(Cl)Cl [Dicofol]	1.92			Developmental phenotype (pregnant rabbits; [2]): Maternal pregnancy loss
COP(=O)(OC)OC(Br)C(Cl)(Cl)Br (stereo not shown) [Naled]		4.22	Embryo fetal loss; trunk: body wall	
Cc1ccc(-c2c(Cl)nc(C#N)n2S(=O)(=O)N(C)C)cc1 [Cyazofamid]		3.34	Skeletal: axial	
CCNP(=S)(OC)O/C(C)=C/C(=O)OC(C)C (stereo not shown) [Propetamphos]	2.08			Developmental phenotype (pregnant rabbits; [2]): Embryo fetal loss
C=CCOC(=O)C(C)(C)OC(=O)c1cc(-n2c(=O)cc(C(F)(F)F)n(C)c2=O)ccc1Cl [Butafenacil]	2.94			Developmental phenotype (pregnant rabbits; [2]): Embryo fetal loss
CCOC(=O)NCCOc1ccc(Oc2ccccc2)cc1 [Fenoxycarb]	3.60			Developmental phenotype (pregnant rabbits; [2]): Skeletal: axial
Fc1ccc(Oc2ccnc3cc(Cl)cc(Cl)c23)cc1 [Quinoxyfen]	3.02			Developmental phenotype (pregnant rabbits; rabbit, in vivo): Maternal pregnancy loss
CO/N=C(/C1=NOCCO1)c1ccccc1Oc1ncnc(Oc2ccccc2Cl)c1F [Fluoxastrobin]		2.79	Skeletal: appendicular	
CCCN(CCC)c1c([N+](=O)[O-])cc(C(F)(F)F)c(N)c1[N+](=O)[O-] [Prodiamine]		2.19	Neurosensory: eye	
COP(=O)(OC)OC=C(Cl)Cl [Dichlorvos]	2.34			Developmental phenotype (pregnant rabbits; rabbit, in vivo): Maternal pregnancy loss
CCCCOCN(C(=O)CCl)c1c(CC)cccc1CC [Butachlor]	1.99			
C#CCC1=C(C)C(OC(=O)C2C(C=C(C)C)C2(C)C)CC1=O (stereo not shown) [Prallethrin]		2.11	Maternal pregnancy loss	
CON=C(C(=O)OC)c1ccccc1CON=C(C)c1cccc(C(F)(F)F)c1 [Trifloxystrobin]	4.26			Developmental phenotype (pregnant rabbits; [2]): Skeletal: axial
Abamectin				AC50 (EphB2): 17 µM; PI3Ka AC50 (PI3Ka): 6.4 µM; VBS ([1]; ToxCast chemicals of Table 2): 5.19; AC50 (TIE2; read-out: TIE2 AC50, repeat of the TIE2 assay from the original data series): 38.8 µM
COC(=O)c1c(C(F)F)nc(C(F)(F)F)c(C2=NCCS2)c1CC(C)C [Thiazopyr]		2.00		
CN1CSC(=S)N(C)C1 [Dazomet]	2.61			
CCC/C(=N\OCC)C1=C(O)CC(CC(C)SCC)CC1=O (stereo not shown) [Sethoxydim]				AC50 (PTEN): 22 µM; VBS ([1]; ToxCast chemicals of Table 2): 0.00
O=C1C2CC=CCC2C(=O)N1SC(Cl)(Cl)Cl (stereo not shown) [Captan]				AC50 (PTEN): 35 µM; VBS ([1]; ToxCast chemicals of Table 2): 1.14
CS/C(C)=N\OC(=O)N(C)SN(C)C(=O)O/N=C(\C)SC [Thiodicarb]		2.97	Fetal weight reduction, general fetal pathology; embryo fetal loss; maternal pregnancy loss; skeletal: axial	
CCOc1cc(C(C)(C)C)ccc1C1COC(c2c(F)cccc2F)=N1 (stereo not shown) [Etoxazole]	3.66			Developmental phenotype (pregnant rabbits; [2]): Skeletal: axial
N#Cc1c[nH]cc1-c1cccc2c1OC(F)(F)O2 [Fludioxonil]		1.82	Urogenital: renal, ureteric	Developmental phenotype (pregnant rats; rat-specific effects in ToxRefDB prenatal studies, ref U.S. EPA 2010b, listed as fludioxonil): urogenital end points
Oc1ccc(C(c2ccc(O)cc2)C(Cl)(Cl)Cl)cc1 [2,2-bis-(p-Hydroxyphenyl)-1,1,1-trichloroethane]				AC50 (PI3Ka): 28 µM; VBS ([1]; ToxCast chemicals of Table 2): 2.28
Emamectin benzoate		2.91	Fetal weight reduction; skeletal: appendicular, axial, cranial	AC50 (EphB2): 21 µM; AC50 (PTEN; read-out: PTEN AC50): 2.1 µM; PI3Ka AC50 (PI3Ka): 7.9 µM; VBS ([1]; ToxCast chemicals of Table 2): 2.91
CCC(C)(C)C(=O)OC1=C(c2ccc(Cl)cc2Cl)C(=O)OC12CCCCC2 [Spirodiclofen]		3.15	Urogenital: renal	Developmental phenotype (pregnant rats; rat-specific effects in ToxRefDB prenatal studies, ref U.S. EPA 2010b, listed as spirodiclofen): urogenital end points
O=C(O)C1(C(=O)Nc2ccc(Cl)cc2Cl)CC1 [Cyclanilide]				AC50 (EphB2): 50 µM; AC50 (PTEN; read-out: PTEN AC50): 3.9 µM; VBS ([1]; ToxCast chemicals of Table 2): 0.21
FC(F)C(F)(F)OCC(Cn1cncn1)c1ccc(Cl)cc1Cl (stereo not shown) [Tetraconazole]		2.23	General fetal pathology; skeletal: axial; urogenital: renal, ureteric	Developmental phenotype (pregnant rats; rat, in vivo): urogenital end points

Compound	VBS [1, 3]	VBS [1, 4]	Developmental phenotype (pregnant rats; [5])	other results
CC1(C)C(C(=O)OC(C#N)c2cccc(Oc3ccccc3)c2)C1(C)C (stereo not shown) [Fenpropathrin]		2.18		Developmental phenotype (pregnant rats; rat, in vivo): Maternal pregnancy loss
C[C@@H]1[C@@H](c2ccc(Cl)cc2)SC(=O)N1C(=O)NC1CCCCC1 [Hexythiazox]		2.78	Skeletal: appendicular	
CC(C)(C)c1ccc(CSc2cnn(C(C)(C)C)c(=O)c2Cl)cc1 [pyridaben]				VBS [1, 6]: 6.9
CCCSP(=O)(OCC)Oc1ccc(Br)cc1Cl (stereo not shown) [Profenofos]		1.71	Maternal pregnancy loss	
N#CSCSC#N [Methylene bis(thiocyanate)]	6.55			Developmental phenotype (pregnant rabbits; [2]): Maternal pregnancy loss
CCc1cccc(CC)c1N(COC)C(=O)CCl [Alachlor]		2.97	Fetal weight reduction; embryo fetal loss	
CCOC(=O)COc1cc(-n2ncc(C(F)(F)F)c(C)c2=O)c(F)cc1Cl [Flufenpyr-ethyl]	1.73			Developmental phenotype (pregnant rabbits; [2]): Maternal pregnancy loss
CCOc1cc(Oc2ccc(C(F)(F)F)cc2Cl)ccc1[N+](=O)[O-] [Oxyfluorfen]	1.82			Developmental phenotype (pregnant rabbits; [2]): Embryo fetal loss; maternal pregnancy loss
Diniconazole		4.57		
CCOc1nc(F)cc2nc(S(=O)(=O)Nc3c(Cl)cccc3Cl)nn12 [Diclosulam]	2.09			AC50 (PTEN; read-out: PTEN AC50): 50 µM; Developmental phenotype (pregnant rabbits; [2]): Maternal pregnancy loss; VBS ([1]; ToxCast chemicals of Table 2): 2.09
CCOP(=S)(OCC)Oc1ccc2c(C)c(Cl)c(=O)oc2c1 [Coumaphos]				MOUSE Chronic (mouse): No effe ct re corded
COP(=O)(OC)O/C(C)=C/C(=O)N(C)C [Dicrotophos]	1.59			
CC1(C)C(C=C(Cl)Cl)C1C(=O)OC(C#N)c1ccc(F)c(Oc2ccccc2)c1 (stereo not shown) [cyfluthrin]				VBS [1, 6]: 1.48
CCc1cccc(C)c1N(C(=O)CCl)C(C)COC (stereo not shown) [Metolachlor]		1.57	Fetal weight reduction; embryo fetal loss; maternal pregnancy loss	
C#CCOS(=O)OC1CCCCC1Oc1ccc(C(C)(C)C)cc1 (stereo not shown) [Propargite]	3.79			Developmental phenotype (pregnant rabbits; [2]): Skeletal: axial
CCOC(=O)C(C)OC(=O)c1cc(Oc2ccc(C(F)(F)F)cc2Cl)ccc1[N+](=O)[O-] (stereo not shown) [Lactofen]		3.18	Fetal weight reduction; maternal pregnancy loss; skeletal: appendicular; skeletal: axial	
CCOCN(C(=O)CCl)c1c(C)cccc1CC [Acetochlor]		2.16		
C[C@@]1(c2ccc(Oc3ccccc3)cc2)OC(=O)N(Nc2ccccc2)C1=O (racemic) [Famoxadone]	1.82			Developmental phenotype (pregnant rabbits; [2]): Embryo fetal loss; maternal pregnancy loss
CN(C)[C@@H]1C(O)=C(C(N)=O)C(=O)[C@@]2(O)C(O)=C3C(=O)c4c(O)cccc4[C@@](C)(O)[C@H]3[C@H](O)[C@@H]12 [Oxytetracycline dihydrate, reference compound]				AC50 (PTEN): 1.6 µM; AC50 (VEGFR2): 19 µM; AC50 (PI3Ka): 6.2 µM; VBS ([1]; ToxCast chemicals of Table 2): 3.85; AC50 (TIE2): 15 µM; AC50 (VEGFR3): 6.5 µM
N#Cc1c(Cl)c(Cl)c(Cl)c(C#N)c1Cl [Chlorothalonil]		3.28	Embryo fetal loss; maternal pregnancy loss	
CCS(=O)(=O)c1cccnc1S(=O)(=O)NC(=O)Nc1nc(OC)cc(OC)n1 [Rimsulfuron]	2.52			Developmental phenotype (pregnant rabbits; rabbit, in vivo): Embryo fetal loss; maternal pregnancy loss
CCCCCOC(=O)COc1cc(N2C(=O)C3=C(CCCC3)C2=O)c(F)cc1Cl [Flumiclorac-pentyl]	2.11			Developmental phenotype (pregnant rabbits; [2]): Maternal pregnancy loss
COP(=O)(OC)SCn1c(=O)oc2cc(Cl)cnc21 [Azamethiphos]	3.10			Developmental phenotype (pregnant rabbits; [2]): Maternal pregnancy loss
Cc1nn(C)c(Oc2ccccc2)c1/C=N/OCc1ccc(C(=O)OC(C)(C)C)cc1 [(Z,E)-Fenpyroximate]		3.88	Skeletal: axial	
CC1=C(C(=O)Nc2ccccc2)SCCO1 [Carboxin]	1.56			Developmental phenotype (pregnant rabbits; [2]): Maternal pregnancy loss

Reference: publication PMC3226499, “Environmental Impact on Vascular Development Predicted by High-Throughput Screening” (Environmental Health Perspectives, 2011)
